In patent publication US20250340848A1, “METHODS FOR CHEMICAL REPROGRAMMING AND PLURIPOTENT STEM CELLS” (Peking University, priority 2022, published 2025):

Key:
Format in all cases: cell-based, human
hADSCs [1] = experiment: Stage 1 conversion of hADSCs to epithelial-like cells, morphology (FIG. 3); conditions: added in stage 1, small-molecule library screen
Description: (§1) In one experiment, when converting hCiPSCs from somatic cell (e.g., hADSCs), hypoxia with 5% O2 was used in stage 1 conversion. After stage 1 conversion, cells were incubated with 21% O2. The induction medium was changed every 3-4 days. hADSCs were seeded at a density of 1×10^4 cells per well of a 12-well plate in 15% FBS-DMEM medium and would be changed into stage 1 conversion medium the next day. For stage 1 conversion, single layer epithelial-like cells induced from hADSCs would emerge at day 4-6 and approach 100% confluence at day 8-12. Then the medium was changed into stage 2 conversion medium. For stage 2 conversion, multi-layered cell colonies appeared after 8-12 days of treatment of the cells with the conversion medium, and these cell colonies would continually grow increasingly large. The medium was changed into stage 3 conversion medium after 16 days of treatment with the stage 2 conversion medium. […]
In stage 1, the conversion medium was changed every 3-4 days. hADSCs were seeded at a density of 1×10^4 cells per well of a 12-well plate in 15% FBS-DMEM medium and would be changed into stage I induction medium the next day. […] Conversion into epithelial-like cells can be measured by upregulation of and epithelial cell-related genes. […]

hADSCs [2] = experiment: Three-stage conversion of hADSCs into hCiPSCs (methods of EXAMPLE 1), numbers of hCiPSC colonies
Source text: FIG. 1 illustrates a schematic of an exemplary method for converting human somatic cells into pluripotent stem cells. The method has 3 stages. During any of the 3 stages, any cell can proliferate and give rise to progeny cells. In stage 1, a first population of cells comprising somatic cells are contacted with a first composition for about 4-12 days. The first population of cells can comprise somatic cells (e.g., fibroblasts or primary human adult adipose derived mesenchymal stromal cells (hADSCs)). During and/or subsequent to contacting the first composition, at least a subset of the cells of the first population of cells or the progenies thereof are converted into a second population of cells. The second population of cells can comprise epithelial-like cells. In stage 2, the second population of cells or the progenies thereof are then contacted with a second composition for about 4-16 days. During and/or subsequent to contacting the second composition, at least a subset of the cells of the second population of cells or the progenies thereof are converted into a third population of cells. The third population of cells can comprise intermediate plastic state cells. In stage 3, the third population of cells or the progenies thereof are contacted with a third composition for about 6-12 days. During and/or subsequent to contacting the third composition, at least a subset of the cells of the third population of cells or the progenies thereof are converted into a fourth population of cells.
FIG. 2 illustrates a schematic of an exemplary method for converting human fibroblasts into pluripotent stem cells. The method can comprise 3 stages. During any of the 3 stages, any cell can proliferate and give rise to progeny cells. In stage 1, a first population of cells comprising fibroblasts is contacted with a first composition for about 8-10 days. During and/or subsequent to contacting the first composition, at least a subset of the cells of the first population of cells or the progenies thereof are converted into a second population of cells. The second population of cells can comprise epithelial-like cells. The epithelial-like cells express an increased amount of LIN28A, relative to the first population of cells or their progenies. In stage 2, the second population of cells or the progenies thereof are then contacted with a second composition for about 12-16 days. During and/or subsequent to contacting the second composition, at least a subset of the cells of the second population of cells or the progenies thereof are converted into a third population of cells. The third population of cells can comprise intermediate plastic state cells. The intermediate plastic state cells express both SALL4 and LIN28A. In stage 3, the third population of cells or the progenies thereof are contacted with a third composition for about 8-10 days. During and/or subsequent to contacting the third composition, at least a subset of the cells of the third population of cells or the progenies thereof are converted into a fourth population of cells. […] The second conversion medium can then be removed from the cells. […] The third stage 3 medium may allow the pluripotent stem cells or the progenies thereof to proliferate.
as §1, with “medium.” for “medium. For stage 2 conversion, multi-layered cell colonies appeared after 8-12 days of treatment of the cells with the conversion medium, and these cell colonies would continually grow increasingly large. The medium was changed into stage 3 conversion medium after 16 days of treatment with the stage 2 conversion medium.”

hADSCs [3] = experiment: Example 7 chemical reprogramming of hADSCs, OCT4+ hCiPSC colonies; conditions: for improving reprogramming efficiency: added in stage 1
Description: The stage 1 induction medium contained Knockout DMEM (Gibco) supplemented with 2% B27 supplement (Gibco), 1% Knockout Serum Replacement (KSR; Gibco), 1% GlutaMAX (Gibco), 1% nonessential amino acids (NEAA; Gibco), 1% penicillin-streptomycin, 50 μg ml-1 Vc2p, 5 mM LiCl, 1 mM nicotinamide, 40 ng ml^−1 BMP4 and the small molecules CHIR-99021 (5 μM), 616452 (10 μM), TTNPB (2 μM), SAG (0.5 μM), EPZ-5676 (2 μM), DZNep (0.05 μM), ruxolitinib (1 μM), VTP50469 (0.5 μM), AKT kinase inhibitor (1 μM), JNK-IN-8 (0.2 μM), SETD2-IN-1 (0.2 μM), AM095 free acid (0.5 μM), WM-8014 (1 μM) and A-485 (0.5 μM).
Stage 2 induction medium contained Knockout DMEM supplemented with 2% B27 supplement, 1% GlutaMAX, 1% NEAA, 1% penicillin-streptomycin, 50 μg ml^−1 Vc2p, 200 ng ml^−1 bFGF and the small molecules CHIR-99021 (5 μM), 616452 (10 μM), TTNPB (2 μM), SAG (0.5 μM), JNK-IN-8 (0.5 μM), EPZ-5676 (2 μM), DZNep (0.2 μM), ruxolitinib (1 μM), BIRB 796 (2 μM), SGC-CBP30 (2 μM), VTP50469 (0.5 μM), 5-Iodotubercidin (0.5 μM), AKT kinase inhibitor (0.2 μM), CX-4945 (1 μM), RA (5 μM) and GSK-3685032 (0.02 μM).
Stage 3 induction medium contained Knockout DMEM supplemented with 2% B27 supplement, 1% GlutaMAX, 1% NEAA, 1% penicillin-streptomycin, 5% KSR, 50 μg ml^−1 Vc2p, 20 ng ml^−1 recombinant human heregulinβ-1 (HRG) and the small molecules CHIR-99021 (1 μM), Y-27632 (10 μM), PD0325901 (1 μM) and SB-590885 (0.5 μM). Knockout DMEM containing supplements and the small molecules mentioned above served as the basal medium for stage 3. For the first 2-3 days of stage 3 induction, valproic acid sodium salt (VPA; 200 μM), tranylcypromine (10 μM), DZNep (0.2 μM), EPZ-5676 (2 μM) and PY-60 (10 μM) were added to the basal medium. For the next 2-3 days, VPA (200 μM) and PY-60 (2 μM) were added to the basal medium. Information on the small molecules, cytokines and other reagents is available in Supplementary Table 4.
Hypoxia with 5% O2 was used for stage 1 induction. After stage 1 induction, the culture was changed to 21% O2.
(1) hADSCs and hASFs were seeded in high-glucose DMEM supplemented with 15% FBS at a density of 1.2-1.4×10^4 cells per well in 12-well plates or 0.6-0.7×10^4 cells per well in 24-well plates. The medium was changed to stage 1 induction medium the next day.
(2) For stage 1 induction, single-layer epithelium-like cells emerged on day 4. When the epithelium-like cells reached ˜100% confluence (usually after 6-8 days of stage 1 induction for hADSCs and 8-10 days for hASFs), the medium was changed to stage 2 induction medium. For the induction of hADSCs in 24-well plates, 1 ml of stage 1 medium was added to each well (2 ml per well for 12-well plates), and there was no need to change the medium during stage 1. For the induction of hASFs, stage 1 medium was replaced with fresh medium on day 6. […]

## CCn1c(-c2nonc2N)nc2c(C#CCO)ncc(OCCCN)c21 [AKT Kinase Inhibitor, 3-[2-(4-amino-1,2,5-oxadiazol-3-yl)-7-(3-aminopropoxy)-1-ethylimidazo[4,5-c]pyridin-4-yl]prop-2-yn-1-ol]
hADSCs [1]
  emergence of epithelial-like colonies: further promoted the emergence epithelial-like colonies
hADSCs [2]; AKTi and CX4945 included in the stage 2 conversion medium (Base), FIG. 18
  reprogramming efficiency: significantly improved the reprogramming efficiency
hADSCs [2]; factor removed from the stage 1 conversion medium, FIG. 4
  numbers of converted hCiPSCs: minimal numbers of converted hCiPSCs

## Cc1cc(-c2ccccc2)cc(C(=O)NNS(=O)(=O)c2ccccc2)c1F [WM8014]
hADSCs [3]; 1 μM screening batch, FIG. 40
  screening of chemical libraries targeting histone modifications during chemical reprogramming stage 1: top candidate
hADSCs [3]
  improving reprogramming efficiency: most effective in improving reprogramming efficiency

## CC(C)N(C(=O)c1cc(F)ccc1Oc1cncnc1N1CC2(CCN(CC3CCC(NS(C)(=O)=O)CC3)CC2)C1)C(C)C (centres unmarked) [VTP50469]
hADSCs [1]
  emergence of epithelial-like colonies: further promoted the emergence epithelial-like colonies
hADSCs [2]; added to the stage 2 conversion medium, relative to medium without it, FIGS. 7A-7B
  increase of the numbers of converted hCiPSCs: about 7 fold
hADSCs [2]; factor removed from the stage 2 conversion medium, FIG. 17
  numbers of converted hCiPSCs: reduced the numbers of converted hCiPSCs
hADSCs [2]; various combinations supplemented to stage 1 conversion medium comprising CHIR99021, 616452, TTNPB and AKT Kinase Inhibitor, FIG. 5
  numbers of converted hCiPSCs: significantly increase the numbers of converted hCiPSCs

## CNC(=O)Nc1ccc2c(c1)CC[C@@]21OC(=O)N(CC(=O)N(Cc2ccc(F)cc2)[C@@H](C)C(F)(F)F)C1=O [A485]
hADSCs [3]; 0.5 μM screening batch, FIG. 39
  screening of chemical libraries targeting histone modifications during chemical reprogramming stage 1: top candidate
hADSCs [3]
  improving reprogramming efficiency: most effective in improving reprogramming efficiency
